SMILES strings stand for the structures. Entries after “also recorded” stand apart in the source; their conditions may differ.

From patent US11141397B2, “Composition for improving efficacy of L-DOPA treatment” (priority 2017, dated 2021) come the findings set out here.

In the assay the test system is intrastriatal rotenone mouse model for PD. Nature of the assay: Rotarod test (motor function) in the intrastriatal rotenone model. In kind it is in vivo, C57BL/6J mice. The procedure:
Forty-eight seven week-old C57BL/6J mice (Charles River, The Netherlands) were housed at room temperature under a 12 h light/dark cycle. Food and water were provided ad libitum. […] Mice underwent stereotaxic surgery under isoflurane anesthesia: a hole was drilled in the skull and a cannula inserted in the right striatum at the following stereotaxic coordinates: AP +0.4, ML -2.0 from bregma, and DV -3.3 below dura. Rotenone-treated animals were injected with 5.4 μg of freshly prepared rotenone solution (dissolved in 2 μl DMSO). Sham-treated animals were injected with the vehicle (2 μl DMSO). 93 days after surgery the mice were euthanized by decapitation. The motor performance of each mouse was assessed in the Rotarod test as described in Inden et al. “Neurodegeneration of mouse nigrostriatal dopaminergic system induced by repeated oral administration of rotenone is prevented by 4-phenylbutyrate, a chemical chaperone” J. […] Briefly, mice were placed on an accelerating rod with speeds starting with 2 rpm and gradually increasing to 20 rpm. Time to first fall was recorded for a maximum of 300 s. […] Animals were divided into four groups of 12 animals (Sham+CD, Sham+AD, Rotenone+CD, and Rotenone+AD). […] The AD also contained supplementary amounts of choline, phospholipids, selenium, folic acid, and vitamins B6, B12, C, D, and E, above standard levels in the control diet. […] The rotarod test was started 1.5h after benserazide administration and performed as described below. […] ANOVAs were followed by a Tukey's multiple comparison test when appropriate. For the rotarod test performance over time, data were analyzed with a general linear model repeated measure ANOVA with the within subject factor time and the between subject factors surgery and diet. […] Analyses were performed using SPSS 22.0.

In the case of `N[C@@H](Cc1ccc(O)c(O)c1)C(=O)O` [levodopa, L-3,4-di-hydroxy-phenylalanine], where the note is “days 26 and 27 after surgery, 60 minutes after 20 mg/kg oral levodopa vs vehicle, before dietary intervention, F(1,92)=24.77, p<0.0001”, the “rotarod performance (time on rotarod)” value is reported as “overall effect of levodopa on the animals' motor performances”. The “effect on rotenone-induced motor dysfunction (rotarod)” value (overall effect, day 65-93, FIG. 1, three-way ANOVA) was “there was an effect; also recorded: alleviated rotenone-induced motor dysfunction”. Besides, the “ability to remain on the rod” value (rotenone-injected mice on AD, levodopa 10 or 20 mg/kg vs saline or 5 mg/kg, day 65-93, p<0.001) is “better ability to remain on the rod”. In addition, the rotarod performance result (rotenone-treated animals on CD, levodopa 20 mg/kg vs 5 mg/kg or saline, day 65-93, p<0.01) is reported as “performed significantly better”.
